This is an account of results in article PMC10569036.

Data set [1] in a line: shake flask on a mixture of 185; loss from the water phase only; LC-QTOF peak areas. To be noted: room.
Data set [2] can be described thus: shake flask on a mixture of 185; loss from the water phase only; LC-Orbitrap peak areas. To be noted: room.

The structures appear in SMILES notation.

Regarding `OCCN(CCO)c1ccccc1`, in data set [1], the “log partition 1-octanol / HPLC water, unbuffered, traces of methanol / DMSO” value (“log partition 1-octanol / HPLC water” for short) is reported as 0.7171 log10; the “log partition butyl acetate / HPLC water, unbuffered, traces of methanol / DMSO” value (shortened to “log partition butyl acetate / HPLC water”) is recorded as 0.3605 log10; the “log partition chloroform / HPLC water, unbuffered, traces of methanol / DMSO” value (“log partition chloroform / HPLC water” below) is recorded as -0.02211 log10; the “log partition cyclohexane / HPLC water, unbuffered, traces of methanol / DMSO” value (shortened to “log partition cyclohexane / HPLC water”) was -1.946 log10. In data set [1], the “log partition dichloromethane / HPLC water, unbuffered, traces of methanol / DMSO” value worked out at 0.1152 log10; the “log partition n-hexane / HPLC water, unbuffered, traces of methanol / DMSO” value (from here on “log partition n-hexane / HPLC water”) was -1.82 log10; the “log partition n-octane / HPLC water, unbuffered, traces of methanol / DMSO” value (from here on “log partition n-octane / HPLC water”) was -2.014 log10; the “log partition n-undecane / HPLC water, unbuffered, traces of methanol / DMSO” value (from here on “log partition n-undecane / HPLC water”) is -1.783 log10. Moreover, in data set [1], the “log partition oleylalcohol / HPLC water, unbuffered, traces of methanol / DMSO” value (“log partition oleylalcohol / HPLC water” below) came to 0.6347 log10 and the “log partition toluene / HPLC water, unbuffered, traces of methanol / DMSO” value (“log partition toluene / HPLC water” for short) was -1.086 log10. Moreover, in data set [2], the “log partition 1-octanol / HPLC water” value amounted to 0.493 log10; the “log partition butyl acetate / HPLC water” value was 0.5439 log10; the “log partition chloroform / HPLC water” value was 0.2882 log10; the “log partition cyclohexane / HPLC water” value is given as -0.9006 log10. Also, in data set [2], the “log partition dichloromethane / HPLC water, unbuffered, traces of methanol / DMSO” value turned out to be 0.4782 log10; the “log partition n-hexane / HPLC water” value was -1.209 log10; the “log partition n-octane / HPLC water” value was -0.9336 log10; the “log partition n-undecane / HPLC water” value is recorded as -1.048 log10. In addition, in data set [2], the “log partition oleylalcohol / HPLC water” value is given as 0.1818 log10 and the “log partition toluene / HPLC water” value was -0.4224 log10.

On to `CN/C(=N/[N+](=O)[O-])NCC1CCOC1` (stereo not drawn), for which, in data set [1], the “log partition 1-octanol / HPLC water” value is -0.7277 log10; the “log partition butyl acetate / HPLC water” value was -1.391 log10; the “log partition chloroform / HPLC water” value is listed as -0.45 log10; the “log partition cyclohexane / HPLC water” value is -1.158 log10. Besides, in data set [1], the “log partition dichloromethane / HPLC water, unbuffered, traces of methanol / DMSO” value is recorded as -0.07832 log10; the “log partition n-hexane / HPLC water” value is -1.181 log10; the “log partition n-octane / HPLC water” value is listed as -1.698 log10; the “log partition n-undecane / HPLC water” value is -1.902 log10. In data set [1], the “log partition oleylalcohol / HPLC water” value is on record as -1.007 log10 and the “log partition toluene / HPLC water” value is on record as -1.236 log10. For the same compound, in data set [2], the “log partition 1-octanol / HPLC water” value came out at 0.006708 log10; the “log partition butyl acetate / HPLC water” value came out at 0.08365 log10; the “log partition chloroform / HPLC water” value is 0.01252 log10; the “log partition cyclohexane / HPLC water” value is -0.8947 log10. Besides, in data set [2], the “log partition dichloromethane / HPLC water, unbuffered, traces of methanol / DMSO” value was 0.2723 log10; the “log partition n-hexane / HPLC water” value is reported as -0.6643 log10; the “log partition n-octane / HPLC water” value is listed as -1.349 log10; the “log partition n-undecane / HPLC water” value was -1.639 log10. Moreover, in data set [2], the “log partition oleylalcohol / HPLC water” value is -0.3931 log10 and the “log partition toluene / HPLC water” value is given as -0.3042 log10.

Take `O=C(c1ccccc1)c1ccc(O)cc1O`: in data set [1], the “log partition 1-octanol / HPLC water” value stood at 2.033 log10; the “log partition butyl acetate / HPLC water” value was 2.368 log10; the “log partition chloroform / HPLC water” value is given as 1.568 log10; the “log partition cyclohexane / HPLC water” value was -0.7702 log10. In addition, in data set [1], the “log partition dichloromethane / HPLC water, unbuffered, traces of methanol / DMSO” value was determined as 1.235 log10; the “log partition n-hexane / HPLC water” value is -0.7955 log10; the “log partition n-octane / HPLC water” value is recorded as -0.8875 log10; the “log partition n-undecane / HPLC water” value is on record as -0.7905 log10. In data set [1], the “log partition oleylalcohol / HPLC water” value is reported as 1.696 log10 and the “log partition toluene / HPLC water” value turned out to be 1.076 log10. In addition, in data set [2], the “log partition 1-octanol / HPLC water” value was 1.665 log10; the “log partition butyl acetate / HPLC water” value is 2.111 log10; the “log partition chloroform / HPLC water” value amounted to 0.8448 log10; the “log partition cyclohexane / HPLC water” value is given as -0.5373 log10. In data set [2], the “log partition dichloromethane / HPLC water, unbuffered, traces of methanol / DMSO” value worked out at 1.668 log10; the “log partition n-hexane / HPLC water” value was -1.173 log10; the “log partition n-octane / HPLC water” value was -0.7644 log10; the “log partition n-undecane / HPLC water” value is on record as -1.267 log10. Further, in data set [2], the “log partition oleylalcohol / HPLC water” value turned out to be 1.444 log10 and the “log partition toluene / HPLC water” value is given as 0.1696 log10.

For `CCc1ccc(C(=O)NN(C(=O)c2cc(C)cc(C)c2)C(C)(C)C)cc1`, in data set [1], the “log partition 1-octanol / HPLC water” value was 1.362 log10; the “log partition butyl acetate / HPLC water” value stood at 1.733 log10; the “log partition chloroform / HPLC water” value is reported as 1.756 log10; the “log partition cyclohexane / HPLC water” value was determined as 1.284 log10. In data set [1], the “log partition dichloromethane / HPLC water, unbuffered, traces of methanol / DMSO” value is 1.824 log10; the “log partition n-hexane / HPLC water” value is on record as 1.035 log10; the “log partition n-octane / HPLC water” value came to 0.9128 log10; the “log partition n-undecane / HPLC water” value came out at 0.8541 log10. Also, in data set [1], the “log partition oleylalcohol / HPLC water” value was 1.649 log10 and the “log partition toluene / HPLC water” value turned out to be 1.989 log10. In data set [2], the “log partition 1-octanol / HPLC water” value stood at 1.544 log10; the “log partition butyl acetate / HPLC water” value is recorded as 1.55 log10; the “log partition chloroform / HPLC water” value is reported as 1.889 log10; the “log partition cyclohexane / HPLC water” value was found to be 2.061 log10. Further, in data set [2], the “log partition dichloromethane / HPLC water, unbuffered, traces of methanol / DMSO” value is 1.493 log10; the “log partition n-hexane / HPLC water” value was determined as 1.296 log10; the “log partition n-octane / HPLC water” value is 1.432 log10; the “log partition n-undecane / HPLC water” value is recorded as 1.36 log10. In addition, in data set [2], the “log partition oleylalcohol / HPLC water” value is 0.7925 log10 and the “log partition toluene / HPLC water” value was found to be 1.17 log10.

As for `C[C@H](CCC(=O)O)[C@H]1CC[C@H]2[C@@H]3CC[C@@H]4C[C@H](O)CC[C@]4(C)[C@H]3CC[C@]12C`, in data set [1], the “log partition 1-octanol / HPLC water” value is on record as 0.06003 log10; the “log partition butyl acetate / HPLC water” value is reported as -0.5367 log10; the “log partition chloroform / HPLC water” value was 0.5205 log10; the “log partition cyclohexane / HPLC water” value is recorded as -1.544 log10. For the same compound, in data set [1], the “log partition dichloromethane / HPLC water, unbuffered, traces of methanol / DMSO” value is listed as 0.7072 log10; the “log partition n-hexane / HPLC water” value is on record as -1.606 log10; the “log partition n-octane / HPLC water” value is recorded as -1.699 log10; the “log partition n-undecane / HPLC water” value is recorded as -0.8435 log10. Also, in data set [1], the “log partition oleylalcohol / HPLC water” value was -0.1203 log10 and the “log partition toluene / HPLC water” value is -1.053 log10. For the same compound, in data set [2], the “log partition 1-octanol / HPLC water” value was 1.225 log10; the “log partition butyl acetate / HPLC water” value was determined as 0.9932 log10; the “log partition chloroform / HPLC water” value worked out at 1.423 log10; the “log partition cyclohexane / HPLC water” value came to 0.1846 log10. Besides, in data set [2], the “log partition dichloromethane / HPLC water, unbuffered, traces of methanol / DMSO” value is 0.6345 log10; the “log partition n-hexane / HPLC water” value was -0.08609 log10; the “log partition n-octane / HPLC water” value stood at 0.2702 log10; the “log partition n-undecane / HPLC water” value amounted to 0.118 log10. Besides, in data set [2], the “log partition oleylalcohol / HPLC water” value is given as -0.1437 log10 and the “log partition toluene / HPLC water” value was determined as 0.6204 log10.

As for `Cn1cnc([N+](=O)[O-])c1Sc1ncnc2nc[nH]c12`, in data set [1], the “log partition 1-octanol / HPLC water” value came to 0.004535 log10; the “log partition butyl acetate / HPLC water” value is given as -0.2382 log10; the “log partition chloroform / HPLC water” value is given as -0.4745 log10; the “log partition cyclohexane / HPLC water” value is recorded as -1.86 log10. Also, in data set [1], the “log partition dichloromethane / HPLC water, unbuffered, traces of methanol / DMSO” value is -0.366 log10; the “log partition n-hexane / HPLC water” value is given as -1.66 log10; the “log partition n-octane / HPLC water” value is -2.343 log10; the “log partition n-undecane / HPLC water” value was -2.232 log10. In data set [1], the “log partition oleylalcohol / HPLC water” value is listed as -0.3513 log10 and the “log partition toluene / HPLC water” value was -1.048 log10. For the same compound, in data set [2], the “log partition 1-octanol / HPLC water” value stood at 0.3085 log10; the “log partition butyl acetate / HPLC water” value came out at 0.621 log10; the “log partition chloroform / HPLC water” value worked out at 0.1897 log10; the “log partition cyclohexane / HPLC water” value was -1.394 log10. For the same compound, in data set [2], the “log partition dichloromethane / HPLC water, unbuffered, traces of methanol / DMSO” value came out at 0.2139 log10; the “log partition n-hexane / HPLC water” value is -1.636 log10; the “log partition n-octane / HPLC water” value is -1.543 log10; the “log partition n-undecane / HPLC water” value is on record as -1.518 log10. Besides, in data set [2], the “log partition oleylalcohol / HPLC water” value is 0.1703 log10 and the “log partition toluene / HPLC water” value is -0.3549 log10.
